How the values were obtained:
[1] = system: Collagen-Induced Arthritis (CIA); test: CIA-EE (Example 1): paw, knee and six-joint histopathology; format: in vivo, Male DBA/1O1aHsd mice; settings: day 45, vs OA-EE placebo, FIG. 4
Excerpt: (§1) Male DBA/1O1aHsd mice (3.5-4 weeks of age) were randomized by weight and enrolled in the study after a three day quarantine in which animals were fed the AlN-93G diet with a modified base fat: 1 part flax seed oil (flax), 9 parts hydrogenated coconut oil (HCOC) and 21 parts high-oleic safflower oil (HO-SAFF). 15 animals were enrolled per study group, with the exception of the No Disease control that had 4 animals. Study groups consisted of:
(§2) The appropriate ethyl esters were blended into the base diet to provide approximately 2500 and 5000 mg/kg polyunsaturated fatty acid (PUFA) per day. The human equivalent doses (HED) were approximately 12 g/day and 22 g/day, respectively. The 2500 mg/kg EE diets contained the following fat blend: 1 part flax, 12 parts HCOC and 23 parts HO-SAFF. The 5000 mg/kg EE diets contained a fat blend consisting of: 1 part flax, 5 parts HCOC and 20 parts HO-SAFF. All study diets provided a total of 7% fat. Animals were fed study diets for approximately 30 days prior to the first collagen injection at day 0 and remained on the diets until study termination (day 45). Animals in the No Disease control and Dexamethasone groups were fed the diet containing OA-EE. Following a second collagen injection on day 21, arthritis severity was scored daily. Blood samples were collected at day 21 and day 45. Joints, 6 per an animal, were collected for histology and pathology on day 45.
Placebo-treated diseased animals had histopathology changes, consistent with those seen in type II collagen induced arthritis, in most joints, with scores ranging from normal to severe. Microscopic alteration included infiltration of synovium and periarticular tissue with neutrophils and mononuclear inflammatory cells (inflammation), marginal zone pannus and bone resorption and cartilage damage (proteoglycan loss, chondrocyte death and collagen matrix destruction). Four-paw, knee and joint parameters were assigned a quantitative score 0=normal, 1=minimal, 2=mild, 3=moderate, 4=marked, 5=severe and a total score was determined per animal.

[2] = system: Collagen-Induced Arthritis (CIA); test: Collagen-Induced Arthritis, ethyl esters (CIA-EE, Example 1): clinical arthritis severity and incidence; format: in vivo, Male DBA/1O1aHsd mice; settings: for arthritis severity score as area under the curve (AUC): days 18-45, FIG. 2; for incidence of disease (clinical arthritis score greater than 0): day 45
Excerpt: The anti-arthritic activity of DHA, DPAn6, DHA/DPAn6 (DHA S-oil ratio) and DHA/EPA (fish oil ratio) ethyl esters (EE) in a chronic mouse model of inflammation, Collagen-Induced Arthritis (CIA), was studied.
as §1, §2
Data was analyzed and compared by one-way ANOVA using the Bonferroni post-test to compare treatment groups to respective placebo control and to make comparisons between treatment groups (GraphPad, Prism, Version 4.0). Effects were considered to be statistically significant at p<0.05.
Arthritis severity was assessed from day 18 to 45; a score of 0 represented an animal devoid of clinical arthritis symptoms and a score of 5 represented advanced clinical arthritis. Scores from 0-5 (most severe) were assigned to each digit on the fore and hind limbs based on erythema, swelling and mobility and the mean arthritis severity per animal was determined.
The incidence of disease was reduced in animals treated with DHA-EE (FIG. 3A/B). A clinical arthritis score greater than 0 was considered diseased. The incidence of disease at day 45 was 13% in animals treated with 2500 mg/kg DHA-EE, as compared to 100% disease incidence in OA-EE (placebo) control animals.

| Compound | knee histopathology parameters ([1]; 2500 mg/kg) | paw histopathology parameters (inflammation, pannus, cartilage damage, bone damage) ([1]; 2500 mg/kg) | knee histopathology parameters ([1]; 5000 mg/kg) | paw histopathology parameters (inflammation, pannus, cartilage damage, bone damage) ([1]; 5000 mg/kg) | arthritis severity score as area under the curve (AUC) ([2]; 2500 mg/kg, vs 2500 mg/kg OA-EE (placebo) control) | arthritis severity score as area under the curve (AUC) ([2]; 5000 mg/kg, vs 5000 mg/kg OA-EE (placebo) control) | incidence of disease (clinical arthritis score greater than 0) ([2]; 2500 mg/kg, FIG. 3A) | incidence of disease (clinical arthritis score greater than 0) ([2]; positive control, 0.1 mg/kg) |
| --- | --- | --- | --- | --- | --- | --- | --- | --- |
| CCCCC/C=C\C/C=C\C/C=C\C/C=C\C/C=C\CCC(=O)OCC [DPAn6-EE, reference compound] | did not significantly improve | did not significantly affect | did not significantly improve | did not significantly affect | did not reduce arthritis | did not reduce arthritis | 100% | – |
| C[C@@H]1C[C@H]2[C@@H]3CCC4=CC(=O)C=C[C@]4(C)[C@@]3(F)[C@@H](O)C[C@]2(C)[C@@]1(O)C(=O)CO [Dexamethasone, reference compound] | – | – | – | – | – | – | – | 60% |

Source: patent publication US20130137767A1, “Methods and Compositions for Treating Arthritis with Docosahexaenoic Acid” (DSM IP ASSETS B.V., priority 2010, published 2013)
